Source: PubChem BioAssay AID1963981 (Molecular Pharmacology Branch, DTP, NCI, 2024)

System: 354836-022-R-J1-PDC multicell spheroid viability
Experiment: Anticancer human tumor 354836-022-R-J1-PDC patient-derived head and neck squamous cell carcinoma cell line growth inhibition [PI3K]
Details: for IC50: curve of first compound; for viability, T/C: stronger effect = lower value
From the text: Combinatorial screen of targeted agents with the PI3K inhibitors inavolisib, alpelisib, duvelisib, and copanlisib in multi-cell type tumor spheroids
A high-throughput screen of multi-cell type tumor spheroids was designed to identify active combinations of targeted small molecules and PI3K pathway inhibitors. Complex spheroids include a stromal component modeled by human endothelial cells (HUVEC) and fibroblasts modeled by human mesenchymal stem cells (MSCs). The concentration ranges selected for each drug and investigational agent were based upon clinically achievable concentrations if the clinical Cmax of the agent was known.
Compounds. The drugs and investigational agents: inavolisib (NSC800729), alpelisib (NSC765974), duvelisib (NSC772469), copanlisib (NSC816437), ipatasertib (NSC767898), afuresertib (NSC778305), talazoparib (NSC767125), sapanisertib (NSC764658), selumetinib (NSC741078), tovorafenib (DAY101, NSC766906), vemurafenib (NSC761431), ravoxertinib (NSC781343), sotorasib (NSC818433), MRTX1133 (NSC 836407), abemaciclib (NSC 768073), palbociclib (NSC758247), venetoclax (NSC 766270), SY5609 (NSC837396), enzalutamide (NSC755605), and darolutamide (NSC825331), were obtained from the National Cancer Institute (NCI) Developmental Therapeutics Program Chemical Repository. The FDA-approved anticancer drug set is available from the NCI Developmental Therapeutics Program. […] The stock solutions were prepared in dimethyl sulfoxide (DMSO, Sigma-Aldrich, St. Louis, MO, cat. D2650) at 800-fold the tested concentration and stored at -70 degrees C prior to their use. All drugs and investigational agents were tested over a range starting from a high concentration at or near the clinical Cmax and decreasing in half-log increments. If the clinical Cmax for an agent had not been determined, the highest concentration tested was 10 microM.
Cell Culture. All cells were maintained in an incubator at 37 degrees C and 5% CO2 with 95% humidity. The PDC lines were cultured according to standard operating procedures established by the NCI PDMR (https://pdmr.cancer.gov/sops/default.htm). All PDCs were thawed and cultured in Matrigel-coated flasks prepared with a working solution of 1X Ham's F-12 nutrient mix, without supplementation (Invitrogen, Waltham, MA, cat. 11765054), 100 U/mL penicillin-streptomycin (Invitrogen, cat. 15140122), and 2.5% Matrigel (Corning Inc., Corning, NY, cat. 354248) for the first three passages. The 354836-022-R-J1-PDC, 475296-252-R-J1-PDC, and 997726-040-R-J2-PDC lines were cultured in 6A media, which includes advanced DMEM/F-12 (Thermo Fisher Scientific, cat. 12634028), 10 mM HEPES (Thermo Fisher Scientific, cat. 15630080), 1X GlutaMAX supplement (Thermo Fisher Scientific, cat. 35050061), 0.1 mg/mL primocin (InvivoGen, San Diego, CA, cat. ant-pm-2), 10% defined fetal bovine serum, heat inactivated (HyClone Laboratories Inc., Logan, UT, cat. SH30070.03HI), 50% L-WRN conditioned media (ATCC, cat. CRL-3276), 1.25 mM N-Acetyl-L-cysteine (Sigma-Aldrich, cat. A9165), 10 mM nicotinamide (Sigma-Aldrich, cat. N0636), 1X B-27 supplement (Thermo Fisher Scientific, cat. 17504044), 1X N-2 supplement (Thermo Fisher Scientific, cat. 17502048), and 10 microM Y-27632 dihydrochloride (Tocris Bioscience, Bristol, United Kingdom, cat. 1254). The 624824-186-R-J2-PDC line was cultured in 6C/Colon 1B media, which includes all 6A media components plus 50 ng/mL human EGF recombinant protein (Thermo Fisher Scientific, cat. PHG0311). […]

[1] = second compound 0.00316 µM, first compound 0.0316 µM
[2] = second compound 0.00316 µM, first compound 0.1 µM
[3] = second compound 0.01 µM, first compound 0.0316 µM
[4] = second compound 0.01 µM, first compound 0.1 µM
[5] = second compound 0.0316 µM, first compound 0.0316 µM
[6] = second compound 0.0316 µM, first compound 0.1 µM
[7] = second compound 0.1 µM, first compound 0.0316 µM
[8] = second compound 0.1 µM, first compound 0.1 µM
[9] = second compound 0.316 µM, first compound 0.0316 µM
[10] = second compound 0.316 µM, first compound 0.1 µM
[11] = second compound 1 µM, first compound 0.0316 µM
[12] = second compound 1 µM, first compound 0.1 µM
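Note: spheroids exposed to agents for seven days before the viability read.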

For Cn1ncnc1[C@H]1c2n[nH]c(=O)c3cc(F)cc(c23)N[C@@H]1c1ccc(F)cc1 + CC(Nc1ccc2c(c1)OCCn1cc(N3C(=O)OCC3C(F)F)nc1-2)C(N)=O, the IC50 (second compound 0.00316 µM) was > 100 nM, the IC50 (second compound 0.01 µM) was > 100 nM and the IC50 (second compound 0.0316 µM) was > 100 nM. The IC50 (second compound 0.1 µM) was > 100 nM, the IC50 (second compound 0.316 µM) was > 100 nM and the IC50 (second compound 1 µM) was > 100 nM. For the same compound, the viability, T/C (second compound 0.00316 µM, first compound 0.000316 µM) was 87.4%, the viability, T/C (second compound 0.00316 µM, first compound 0.001 µM) was 97.1% and the viability, T/C (second compound 0.00316 µM, first compound 0.00316 µM) was 91.6%. For the same compound, the viability, T/C (second compound 0.00316 µM, first compound 0.01 µM) was 101%, the viability, T/C [1] was 120% and the viability, T/C [2] was 89.8%. It also gave a viability, T/C (second compound 0.01 µM, first compound 0.000316 µM) of 88.4%, a viability, T/C (second compound 0.01 µM, first compound 0.001 µM) of 83.4% and a viability, T/C (second compound 0.01 µM, first compound 0.00316 µM) of 105%. For the same compound, the viability, T/C (second compound 0.01 µM, first compound 0.01 µM) was 92.6%, the viability, T/C [3] was 88.3% and the viability, T/C [4] was 84.3%. It also gave a viability, T/C (second compound 0.0316 µM, first compound 0.000316 µM) of 83%, a viability, T/C (second compound 0.0316 µM, first compound 0.001 µM) of 89.8% and a viability, T/C (second compound 0.0316 µM, first compound 0.00316 µM) of 95%. For the same compound, the viability, T/C (second compound 0.0316 µM, first compound 0.01 µM) was 111%, the viability, T/C [5] was 101% and the viability, T/C [6] was 75.5%. The viability, T/C (second compound 0.1 µM, first compound 0.000316 µM) was 87%, the viability, T/C (second compound 0.1 µM, first compound 0.001 µM) was 104% and the viability, T/C (second compound 0.1 µM, first compound 0.00316 µM) was 89.9%. For the same compound, the viability, T/C (second compound 0.1 µM, first compound 0.01 µM) was 89.1%, the viability, T/C [7] was 97.8% and the viability, T/C [8] was 70.3%. For the same compound, the viability, T/C (second compound 0.316 µM, first compound 0.000316 µM) was 69.1%, the viability, T/C (second compound 0.316 µM, first compound 0.001 µM) was 81.8% and the viability, T/C (second compound 0.316 µM, first compound 0.00316 µM) was 74.7%. It also gave a viability, T/C (second compound 0.316 µM, first compound 0.01 µM) of 72.6%, a viability, T/C [9] of 78.8% and a viability, T/C [10] of 60.4%. For the same compound, the viability, T/C (second compound 1 µM, first compound 0.000316 µM) was 58%, the viability, T/C (second compound 1 µM, first compound 0.001 µM) was 63% and the viability, T/C (second compound 1 µM, first compound 0.00316 µM) was 61.8%. For the same compound, the viability, T/C (second compound 1 µM, first compound 0.01 µM) was 56.8%, the viability, T/C [11] was 71.9% and the viability, T/C [12] was 53.4%.
In the case of Cn1nccc1Nc1nccc(-c2ccn(C(CO)c3ccc(Cl)c(F)c3)c(=O)c2)n1 (centres undefined) + COc1c(OCCCN2CCOCC2)ccc2c3n(c(=NC(=O)c4cnc(N)nc4)nc12)CCN3, the IC50 (second compound 0.00316 µM) is reported as > 10000 nM, the IC50 (second compound 0.01 µM) is reported as > 10000 nM and the IC50 (second compound 0.0316 µM) is reported as > 10000 nM. For the same compound, the IC50 (second compound 0.1 µM) was 73.6 nM, the IC50 (second compound 0.316 µM) was < 31.6 nM and the IC50 (second compound 1 µM) was < 31.6 nM. For the same compound, the viability, T/C [1] was 97%, the viability, T/C [2] was 98.1% and the viability, T/C (second compound 0.00316 µM, first compound 0.316 µM) was 94.2%. It also gave a viability, T/C (second compound 0.00316 µM, first compound 1 µM) of 89.3%, a viability, T/C (second compound 0.00316 µM, first compound 3.16 µM) of 92.1% and a viability, T/C (second compound 0.00316 µM, first compound 10 µM) of 82.7%. For the same compound, the viability, T/C [3] was 88.5%, the viability, T/C [4] was 99% and the viability, T/C (second compound 0.01 µM, first compound 0.316 µM) was 88%. It also gave a viability, T/C (second compound 0.01 µM, first compound 1 µM) of 94%, a viability, T/C (second compound 0.01 µM, first compound 3.16 µM) of 91.9% and a viability, T/C (second compound 0.01 µM, first compound 10 µM) of 97.6%. For the same compound, the viability, T/C [5] was 83.4%, the viability, T/C [6] was 69.7% and the viability, T/C (second compound 0.0316 µM, first compound 0.316 µM) was 76%. For the same compound, the viability, T/C (second compound 0.0316 µM, first compound 1 µM) was 84.7%, the viability, T/C (second compound 0.0316 µM, first compound 3.16 µM) was 87.2% and the viability, T/C (second compound 0.0316 µM, first compound 10 µM) was 64.2%. It also gave a viability, T/C [7] of 49.1%, a viability, T/C [8] of 49.2% and a viability, T/C (second compound 0.1 µM, first compound 0.316 µM) of 46.9%. For the same compound, the viability, T/C (second compound 0.1 µM, first compound 1 µM) was 49.6%, the viability, T/C (second compound 0.1 µM, first compound 3.16 µM) was 44.8% and the viability, T/C (second compound 0.1 µM, first compound 10 µM) was 32.2%. It also gave a viability, T/C [9] of 11.8%, a viability, T/C [10] of 11.1% and a viability, T/C (second compound 0.316 µM, first compound 0.316 µM) of 11.1%. The viability, T/C (second compound 0.316 µM, first compound 1 µM) was 11.4%, the viability, T/C (second compound 0.316 µM, first compound 3.16 µM) was 6.95% and the viability, T/C (second compound 0.316 µM, first compound 10 µM) was 2.26%. The viability, T/C [11] was 1.52%, the viability, T/C [12] was 1.16% and the viability, T/C (second compound 1 µM, first compound 0.316 µM) was 1.02%. It also gave a viability, T/C (second compound 1 µM, first compound 1 µM) of 1.12%, a viability, T/C (second compound 1 µM, first compound 3.16 µM) of 1.77% and a viability, T/C (second compound 1 µM, first compound 10 µM) of 0.33%.
